The values that follow come from patent publication EP4678638A1, “NEW E3 UBIQUITIN LIGASE LIGAND, PROTEIN DEGRADATION AGENT AND USE THEREOF” (priority 2023, dated 2024).

The target in one experiment is T1, RSK1 (Homo sapiens, UniProt Q15418).
T1 construct: evaluate the effects of the compounds of the present disclosure on the expression of target proteins in cells; endogenous in cells; host or cells: hPBMC
Put plainly: Western blot degradation of RSK1 (hPBMC). Format: cell-based. The settings on record: Table D8. How it is done:
(§1) Conventional Western blot assay was performed to evaluate the effects of the compounds of the present disclosure on the expression of target proteins in cells.
(§2) (1) Cell Seeding and Protein Harvesting: The selected cells were processed according to the cell seeding procedure and protein harvesting procedure in Table III-2. Table III-2 Cell Seeding and Protein Harvesting Procedures
(§3) (2) To the collected supernatant, 5X SDS sample loading buffer was added, followed by denaturation at 95°C for 5 minutes. The denatured samples were then separated by SDS-PAGE electrophoresis on a polyacrylamide gel. Proteins were transferred to a nitrocellulose membrane (0.45 µm NC membrane), blocked with blocking buffer at room temperature for 1 hour, and subjected to antibody incubation and development procedures according to the antibody manufacturer's instructions (Cell Signaling Technology).
(§4) Half-Maximal Degradation Concentration value (the drug concentration required for degrading proteins by 50%, abbreviated as DC50) reads method: comparing the grayscale values of Western blot bands from drug-treated samples with those from blank DMSO-treated controls, and identifying the drug concentration range at which the grayscale value is half that of the DMSO-treated control bands.
(§5) DC50 values can be calculated using ImageJ software to measure grayscale values of Western blot bands from drug-treated samples. The concentration-response curve is fitted to estimate the drug concentration corresponding to half the grayscale value.
(§6) Target protein remaining (%) refers to the percentage of target protein remaining in hPBMC cells after treatment with protein degrader compounds.
(§7) Calculation method for target protein remaining (%): Use ImageJ software to measure grayscale values of Western blot bands from drug (protein degrader)-treated samples. The grayscale value of drug-treated bands is divided by that of internal control protein bands, and the resulting quotient is normalized to obtain the relative percentage of remaining target protein after protein degrader treatment.
(§8) Target protein degradation rate (%) = 100% - target protein remaining (%).

A further experiment concerns the target T2, RSK2 (Homo sapiens, UniProt P51812).
T2 construct: evaluate the effects of the compounds of the present disclosure on the expression of target proteins in cells; endogenous in cells; host or cells: hPBMC
Put plainly: Western blot degradation of RSK2 (hPBMC). The experiment is classed as cell-based. The settings on record: Table D8. Here is the method:
as §1, §2, §3, §4, §5, §6, §7, §8

T2 sequence (P51812 whole entry): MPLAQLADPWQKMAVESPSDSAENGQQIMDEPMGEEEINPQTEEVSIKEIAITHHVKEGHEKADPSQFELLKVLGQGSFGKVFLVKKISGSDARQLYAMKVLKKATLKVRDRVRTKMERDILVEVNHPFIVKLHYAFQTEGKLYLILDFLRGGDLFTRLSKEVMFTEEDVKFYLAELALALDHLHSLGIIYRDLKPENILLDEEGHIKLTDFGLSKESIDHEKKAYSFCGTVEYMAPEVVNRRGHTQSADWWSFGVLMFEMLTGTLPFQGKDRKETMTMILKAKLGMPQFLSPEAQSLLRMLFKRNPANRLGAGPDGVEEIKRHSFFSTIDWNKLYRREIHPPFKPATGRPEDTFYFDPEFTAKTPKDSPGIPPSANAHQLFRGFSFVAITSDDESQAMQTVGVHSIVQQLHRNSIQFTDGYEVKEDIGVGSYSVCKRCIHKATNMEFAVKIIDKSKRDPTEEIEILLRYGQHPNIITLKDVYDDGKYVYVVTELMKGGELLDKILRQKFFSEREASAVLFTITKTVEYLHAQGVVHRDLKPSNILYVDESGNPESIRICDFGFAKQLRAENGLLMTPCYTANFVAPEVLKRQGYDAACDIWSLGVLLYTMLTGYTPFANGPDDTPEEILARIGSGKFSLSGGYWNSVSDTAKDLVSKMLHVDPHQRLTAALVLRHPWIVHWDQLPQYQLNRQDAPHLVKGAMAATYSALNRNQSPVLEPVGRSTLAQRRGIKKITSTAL
T1 sequence (Q15418 whole entry): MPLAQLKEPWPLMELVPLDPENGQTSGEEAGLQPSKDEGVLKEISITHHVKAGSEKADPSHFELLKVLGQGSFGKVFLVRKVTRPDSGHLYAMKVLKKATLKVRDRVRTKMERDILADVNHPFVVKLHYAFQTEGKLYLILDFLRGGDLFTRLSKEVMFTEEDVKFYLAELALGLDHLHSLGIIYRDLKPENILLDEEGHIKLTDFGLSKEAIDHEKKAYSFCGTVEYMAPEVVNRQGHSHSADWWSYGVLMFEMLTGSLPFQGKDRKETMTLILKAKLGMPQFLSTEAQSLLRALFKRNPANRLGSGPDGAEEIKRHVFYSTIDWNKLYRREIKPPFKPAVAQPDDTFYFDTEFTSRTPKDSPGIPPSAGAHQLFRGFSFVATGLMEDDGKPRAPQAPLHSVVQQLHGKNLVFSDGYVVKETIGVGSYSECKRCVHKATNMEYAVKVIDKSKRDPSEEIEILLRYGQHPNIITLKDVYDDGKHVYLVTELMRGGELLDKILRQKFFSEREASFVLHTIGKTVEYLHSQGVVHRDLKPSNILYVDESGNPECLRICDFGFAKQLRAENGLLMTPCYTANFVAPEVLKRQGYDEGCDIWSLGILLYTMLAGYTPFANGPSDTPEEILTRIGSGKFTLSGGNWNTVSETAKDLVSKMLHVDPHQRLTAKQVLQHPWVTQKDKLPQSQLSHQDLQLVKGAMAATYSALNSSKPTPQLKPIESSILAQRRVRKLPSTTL

On to `C[C@@H]1CNC(=O)c2cc3ccc(C(=O)Nc4cnn(Cc5ccc(N6CCC(N7CCN(Cc8cccc(NC9CCC(=O)NC9=O)c8)CC7)CC6)cc5)c4)nc3n21` (stereo partly drawn) [GT-07956, (9R)-N-(1-(4-(4-(4-(3-((2,6-dioxopiperidin-3-yl)amino)benzyl)piperazin-1-yl)piperidin-1-yl)benzyl)-1H-pyrazol-4-yl)-9-methyl-6-oxo-6,7,8,9-tetrahydropyrido[3',2':4,5]pyrrolo[1,2-a]pyrazine-2-carboxamide], for which, at RSK1, the “Degradation of substrate protein RSK1 (substrate protein remaining %)” value was “A (A is defined as 0% ≤ substrate protein remaining % ≤ 80%)”. Further, on RSK2, the “Degradation of substrate protein RSK2 (substrate protein remaining %)” value is on record as “A (A is defined as 0% ≤ substrate protein remaining % ≤ 80%)”.

With `C[C@@H]1CNC(=O)c2cc3ccc(C(=O)Nc4cnn(Cc5ccc(N6CCC(N7CCN(Cc8ccc(C9CCC(=O)NC9=O)cc8)CC7)CC6)cc5)c4)nc3n21` (stereo partly drawn) [GT-07951, (9R)-N-(1-(4-(4-(4-(4-(2,6-dioxopiperidin-3-yl)benzyl)piperazin-1-yl)piperidin-1-yl)benzyl)-1H-pyrazol-4-yl)-9-methyl-6-oxo-6,7,8,9-tetrahydropyrido[3',2':4,5]py rrolo[1,2-a]pyrazine-2-carboxamide], at RSK1, the “Degradation of substrate protein RSK1 (substrate protein remaining %)” value was “A (A is defined as 0% ≤ substrate protein remaining % ≤ 80%)”. The “Degradation of substrate protein RSK2 (substrate protein remaining %)” value at RSK2 is “A (A is defined as 0% ≤ substrate protein remaining % ≤ 80%)”.

For the molecule `C[C@@H]1CNC(=O)c2cc3ccc(C(=O)Nc4cnn(Cc5ccc(N6CCC(N(C)Cc7cc(N8CCC(=O)NC8=O)ncc7F)CC6)cc5)c4)nc3n21` [GT-07943, (R)-N-(1-(4-(4-(((2-(2,4-dioxotetrahydropyrimidin-1(2H)-yl)-5-fluoropyridin-4-yl)methyl)(methyl)amino)piperidin-1-yl)benzyl)-1H-pyrazol-4-yl)-9-methyl-6-oxo-6,7,8,9-tetrahydropyrido[3',2':4,5]py rrolo[1,2-a]pyrazine-2-carboxamide], the “Degradation of substrate protein RSK1 (substrate protein remaining %)” value at RSK1 is “A (A is defined as 0% ≤ substrate protein remaining % ≤ 80%)”. For the same molecule, on RSK2, the “Degradation of substrate protein RSK2 (substrate protein remaining %)” value was “A (A is defined as 0% ≤ substrate protein remaining % ≤ 80%)”.

With `C[C@@H]1CNC(=O)c2cc3ccc(C(=O)Nc4cnn(Cc5ccc(N6CCC(N(C)Cc7ccnc(C8CCC(=O)NC8=O)c7)CC6)cc5)c4)nc3n21` (stereo partly drawn) [GT-07947, (9R)-N-(1-(4-(4-(((2-(2,6-dioxopiperidin-3-yl)pyridin-4-yl)methyl)(methyl)amino)piperidin-1-yl)benzyl)-1H-pyrazol-4-yl)-9-methyl-6-oxo-6,7,8,9-tetrahydropyrido[3',2':4,5]py rrolo[1,2-a]pyrazine-2-carboxamide], the “Degradation of substrate protein RSK1 (substrate protein remaining %)” value on RSK1 was “A (A is defined as 0% ≤ substrate protein remaining % ≤ 80%)”. Besides, the “Degradation of substrate protein RSK2 (substrate protein remaining %)” value on RSK2 is recorded as “A (A is defined as 0% ≤ substrate protein remaining % ≤ 80%)”.

Regarding `C[C@@H]1CNC(=O)c2cc3ccc(C(=O)Nc4cnn(Cc5ccc(N6CCN(Cc7cncc(C8CCC(=O)NC8=O)c7)CC6)cc5)c4)nc3n21` (stereo partly drawn) [GT-07934, (9R)-N-(1-(4-(4-((5-(2,6-dioxopiperidin-3-yl)pyridin-3-yl)methyl)piperazin-1-yl)benzyl)-1H-pyrazol-4-yl)-9-methyl-6-oxo-6,7,8,9-tetrahydropyrido[3',2':4,5]py rrolo[1,2-a]pyrazine-2-carboxamide], the “Degradation of substrate protein RSK1 (substrate protein remaining %)” value at RSK1 is listed as “A (A is defined as 0% ≤ substrate protein remaining % ≤ 80%)”. Also, the “Degradation of substrate protein RSK2 (substrate protein remaining %)” value on RSK2 is recorded as “B (B is defined as substrate protein remaining % > 80%)”.

As to `C[C@@H]1CNCc2cc3ccc(C(=O)Nc4cnn(Cc5ccc(N6CCC(N(C)Cc7ccc(N8CCC(=O)NC8=O)nc7)CC6)cc5)c4)nc3n21` [GT-07941, (R)-N-(1-(4-(4-(((6-(2,4-dioxotetrahydropyrimidin-1(2H)-yl)pyridin-3-yl)methyl)(methyl)amino)piperidin-1-yl)benzyl)-1H-pyrazol-4-yl)-9-methyl-6,7,8,9-tetrahydropyrido[3',2':4,5]py rrolo[1,2-a]pyrazine-2-carboxamide], the “Degradation of substrate protein RSK1 (substrate protein remaining %)” value at RSK1 was “A (A is defined as 0% ≤ substrate protein remaining % ≤ 80%)”. For the same molecule, on RSK2, the “Degradation of substrate protein RSK2 (substrate protein remaining %)” value is “A (A is defined as 0% ≤ substrate protein remaining % ≤ 80%)”.

`C[C@@H]1CNC(=O)c2cc3ccc(C(=O)Nc4cnn(Cc5ccc(N6CCN(Cc7cncc(N8CCC(=O)NC8=O)c7)CC6)cc5)c4)nc3n21` [GT-07925, (R)-N-(1-(4-(4-((5-(2,4-dioxotetrahydropyrimidin-1(2H)-yl)pyridin-3-yl)methyl)piperazin-1-yl)benzyl)-1H-pyrazol-4-yl)-9-methyl-6-oxo-6,7,8,9-tetrahydropyrido[3',2':4,5]py rrolo[1,2-a]pyrazine-2-carboxamide]: the “Degradation of substrate protein RSK1 (substrate protein remaining %)” value on RSK1 is given as “A (A is defined as 0% ≤ substrate protein remaining % ≤ 80%)”. The “Degradation of substrate protein RSK2 (substrate protein remaining %)” value at RSK2 is listed as “B (B is defined as substrate protein remaining % > 80%)”.

As to `C[C@@H]1CNC(=O)c2cc3ccc(C(=O)Nc4cnn(Cc5ccc(N6CCN(Cc7ccnc(N8CCC(=O)NC8=O)c7)CC6)cc5)c4)nc3n21` [GT-07798, (R)-N-(1-(4-(4-((2-(2,4-dioxotetrahydropyrimidin-1(2H)-yl)pyridin-4-yl)methyl)piperazin-1-yl)benzyl)-1H-pyrazol-4-yl)-9-methyl-6-oxo-6,7,8,9-tetrahydropyrido[3',2':4,5]py rrolo[1,2-a]pyrazine-2-carboxamide], the “Degradation of substrate protein RSK1 (substrate protein remaining %)” value on RSK1 is “A (A is defined as 0% ≤ substrate protein remaining % ≤ 80%)”. The “Degradation of substrate protein RSK2 (substrate protein remaining %)” value at RSK2 is on record as “A (A is defined as 0% ≤ substrate protein remaining % ≤ 80%)”.

For the molecule `C[C@@H]1CNC(=O)c2cc3ccc(C(=O)Nc4cnn(Cc5ccc(N6CCC(N(C)Cc7ccnc(N8CCC(=O)NC8=O)c7)CC6)cc5)c4)nc3n21` [GT-07944, (R)-N-(1-(4-(4-(((2-(2,4-dioxotetrahydropyrimidin-1(2H)-yl)pyridin-4-yl)methyl)(methyl)amino)piperidin-1-yl)benzyl)-1H-pyrazol-4-yl)-9-methyl-6-oxo-6,7,8,9-tetrahydropyrido[3',2':4,5]py rrolo[1,2-a]pyrazine-2-carboxamide], the “Degradation of substrate protein RSK1 (substrate protein remaining %)” value at RSK1 is “A (A is defined as 0% ≤ substrate protein remaining % ≤ 80%)”. The “Degradation of substrate protein RSK2 (substrate protein remaining %)” value on RSK2 is listed as “A (A is defined as 0% ≤ substrate protein remaining % ≤ 80%)”.

For the molecule `C[C@@H]1CNC(=O)c2cc3ccc(C(=O)Nc4cnn(Cc5ccc(N6CCC(N7CCN(Cc8cncc(N9CCC(=O)NC9=O)c8)CC7)CC6)cc5)c4)nc3n21` [GT-07959, (R)-N-(1-(4-(4-(4-((5-(2,4-dioxotetrahydropyrimidin-1(2H)-yl)pyridin-3-yl)methyl)piperazin-1-yl)piperidin-1-yl)benzyl)-1H-pyrazol-4-yl)-9-methyl-6-oxo-6,7,8,9-tetrahydropyrido[3',2':4,5]pyrrolo[1,2-a]pyrazine-2-carboxamide], the “Degradation of substrate protein RSK1 (substrate protein remaining %)” value at RSK1 is reported as “A (A is defined as 0% ≤ substrate protein remaining % ≤ 80%)”. Also, at RSK2, the “Degradation of substrate protein RSK2 (substrate protein remaining %)” value is “A (A is defined as 0% ≤ substrate protein remaining % ≤ 80%)”.

With `C[C@@H]1CNC(=O)c2cc3ccc(C(=O)Nc4cnn(Cc5ccc(N6CCC(N(C)Cc7cnc(N8CCC(=O)NC8=O)cn7)CC6)cc5)c4)nc3n21` [GT-07950, (R)-N-(1-(4-(4-(((5-(2,4-dioxotetrahydropyrimidin-1(2H)-yl)pyrazin-2-yl)methyl)(methyl)amino)piperidin-1-yl)benzyl)-1H-pyrazol-4-yl)-9-methyl-6-oxo-6,7,8,9-tetrahydropyrido[3',2':4,5]py rrolo[1,2-a]pyrazine-2-carboxamide], the “Degradation of substrate protein RSK1 (substrate protein remaining %)” value on RSK1 was “A (A is defined as 0% ≤ substrate protein remaining % ≤ 80%)”. In addition, the “Degradation of substrate protein RSK2 (substrate protein remaining %)” value on RSK2 was “A (A is defined as 0% ≤ substrate protein remaining % ≤ 80%)”.

As to `C[C@@H]1CNC(=O)c2cc3ccc(C(=O)Nc4cnn(Cc5ccc(N6CCN(Cc7ccc(N8CCC(=O)NC8=O)nc7)CC6)cc5)c4)nc3n21` [GT-07930, (R)-N-(1-(4-(4-((6-(2,4-dioxotetrahydropyrimidin-1(2H)-yl)pyridin-3-yl)methyl)piperazin-1-yl)benzyl)-1H-pyrazol-4-yl)-9-methyl-6-oxo-6,7,8,9-tetrahydropyrido[3',2':4,5]py rrolo[1,2-a]pyrazine-2-carboxamide], the “Degradation of substrate protein RSK1 (substrate protein remaining %)” value at RSK1 is “A (A is defined as 0% ≤ substrate protein remaining % ≤ 80%)”. Moreover, on RSK2, the “Degradation of substrate protein RSK2 (substrate protein remaining %)” value is “B (B is defined as substrate protein remaining % > 80%)”.
